Laboratory results from paper PMC8197367, “Comparative Antimicrobial Activity of Hp404 Peptide and Its Analogs against Acinetobacter baumannii” (International Journal of Molecular Sciences, 2021).
Values after ≈ are worked out from the molar mass of the structure shown.

Experiments:
A. baumannii KCTC 2508 = assay: Biofilm inhibition, crystal violet assay; assay type: cell-based, Acinetobacter baumannii; details: NB with 0.2% glucose, 24 h, 37 °C, 595 nm, highest concentration 25 μM
Experimental: (§1) Acinetobacter baumannii KCTC 2508, #3, #4, 409081 and 719705 were incubated overnight at 37°C to mid-log phase in NB medium. Bacterial cells (5 × 10^5 CFU/mL) were suspended in NB containing 0.2% glucose. A final concentration of 25 μM of peptides and antibiotics (meropenem and polymyxin B) was prepared with the bacterial suspensions in 96-well tissue culture plates and incubated at 37 °C for 24 h. The culture media was carefully removed, and biofilms were fixed with 100% methanol for 15 min and then stained with 0.1% crystal violet for 1 h and rinsed three times with distilled water. After air-drying, the biofilm mass was dissolved in 100 μL of 95% ethanol and measured at 595 nm using a microplate reader.

A. baumannii 409081 [1] = assay: Biofilm inhibition, crystal violet assay; assay type: cell-based, Acinetobacter baumannii; details: NB with 0.2% glucose, 24 h, 37 °C, 595 nm, highest concentration 25 μM
Experimental: as §1

A. baumannii #3 [2] = assay: Biofilm inhibition, crystal violet assay; assay type: cell-based, Acinetobacter baumannii; details: NB with 0.2% glucose, 24 h, 37 °C, 595 nm, highest concentration 25 μM
Experimental: as §1

A. baumannii 719705 [3] = assay: Biofilm inhibition, crystal violet assay; assay type: cell-based, Acinetobacter baumannii; details: NB with 0.2% glucose, 24 h, 37 °C, 595 nm, highest concentration 25 μM
Experimental: as §1

A. baumannii biofilms = assay: Live biofilm viability assay, SYTO 9 imaging; assay type: cell-based, Acinetobacter baumannii; details: preformed biofilm treated with 50 μM for 24 h; A. baumannii including strains isolated from patients; EVOS FL Auto 2
Experimental: An A. baumannii biofilm viability assay was performed by staining with Syto9 dye. Acinetobacter baumannii strains were diluted to approximately 5 × 10^5 CFU/mL and incubated for 24 h. Biofilms of A. baumannii strains were washed with PBS and treated with 25 and 50 μM peptides and antibiotics for 24 h. Biofilms were stained with SYTO 9 diluted in PBS and the biofilm was visualized using an EVOS™ FL Auto 2 Imaging System (Thermo Fisher Scientific, Waltham, MA, USA).

A. baumannii 907233 = assay: microbe, parasite or virus in culture
From the text: (§2) Staphylococcus aureus ATCC 25923, S. aureus ATCC 29213, P. aeruginosa ATCC 27853, Escherichia coli ATCC 25922 and Salmonella typhimurium ATCC 14028 strains were obtained from the American Type Culture Collection (ATCC, Manassas, VA, USA). Listeria monocytogenes KCTC 3710, Bacillus cereus KCTC 1012, K. pneumoniae KCTC 2208 and A. baumannii KCTC 2508 were obtained from the Korean Collection for Type Cultures (KRIBB, Daejeon, South Korea). Clinical isolates of A. baumannii strains were collected from Eulji University Hospital (Seoul, South Korea).
(§3) Hp1404 and its analog peptides activity against both gram-positive and gram-negative bacterial strains were tested using the broth microdilution method. Briefly, S. aureus (ATCC 25923, ATCC 29213) and B. cereus KCTC 1012 were cultured overnight at 37 °C in tryptic soy broth (TSB). P. aeruginosa ATCC 27853, K. pneumoniae KCTC 2208, A. baumannii KCTC 2508 and S. typhimurium ATCC 14028 were cultured overnight at 37 °C in nutrient broth (NB). E. coli ATCC 25922 was cultured overnight at 37 °C in luria bertani (LB). L. monocytogenes KCTC 3710 was cultured overnight at 37 °C in brain heart infusion (BHI). The cultures were diluted with fresh medium at a density of 2 × 10^5 CFU/mL. Peptides were serially diluted in sodium phosphate buffer (pH 7.2) to a final concentration of 25 μM. In a 96-well plate, 50-μL bacterial aliquots were mixed with 50 μL peptide solution. After incubation at 37 °C for 18 h, the MIC was determined using a plate reader at 600 nm. The experiment was performed in triplicate.

A. baumannii 409081 [4] = assay: microbe, parasite or virus in culture
From the text: as §2, §3

A. baumannii #2 = assay: microbe, parasite or virus in culture; details: 18 h
From the text: as §2, §3

A. baumannii #4 = assay: microbe, parasite or virus in culture; details: 18 h
From the text: as §2, §3

A. baumannii #3 [5] = assay: microbe, parasite or virus in culture; details: 18 h
From the text: as §2, §3

A. baumannii 719705 [6] = assay: microbe, parasite or virus in culture
From the text: as §2, §3

In the case of polymyxin B [reference compound], the “concentration that inhibited biofilm formation” value (A. baumannii KCTC 2508) is reported as 6.25 µM, the “concentration that inhibited biofilm formation” value (A. baumannii 409081 [1]) is reported as 6.25 µM and the “concentration that inhibited biofilm formation” value (A. baumannii #3 [2]) is reported as 6.25 µM. The “concentration that inhibited biofilm formation” value (A. baumannii 719705 [3]) was 6.25 µM, the “biofilm reduction by SYTO 9 fluorescence imaging” value (A. baumannii biofilms) was “did not decrease biofilm formation” and the MIC (A. baumannii 907233; A. baumannii 907233 isolated from patient, broth microdilution, 37 °C, 18 h, three independent experiments) was 0.78 µM. It also gave an MIC (A. baumannii 409081 [4]; A. baumannii 409081 isolated from patient, broth microdilution, 37 °C, 18 h, three independent experiments) of 0.78 µM, an MIC (A. baumannii #2; A. baumannii #2 isolated from patient, broth microdilution, 37 °C, three independent experiments) of 0.39 µM and an MIC (A. baumannii #4; A. baumannii #4 isolated from patient, broth microdilution, 37 °C, three independent experiments) of 0.39 µM. It also gave an MIC (A. baumannii #3 [5]; A. baumannii #3 isolated from patient, broth microdilution, 37 °C, three independent experiments) of 0.78 µM and an MIC (A. baumannii 719705 [6]; A. baumannii 719705 isolated from patient, broth microdilution, 37 °C, 18 h, three independent experiments) of 0.78 µM.
In the case of `C[C@@H](O)[C@H]1C(=O)N2C(C(=O)O)=C(S[C@@H]3CN[C@H](C(=O)N(C)C)C3)[C@H](C)[C@H]12` [Meropenem, meropenem, reference compound], the “concentration that inhibited biofilm formation” value (A. baumannii KCTC 2508) is reported as 6.25 µM, the “concentration that inhibited biofilm formation” value (A. baumannii 409081 [1]) is reported as no less than 25 µM and the “concentration that inhibited biofilm formation” value (A. baumannii #3 [2]) is reported as no less than 25 µM. For the same compound, the “biofilm reduction by SYTO 9 fluorescence imaging” value (A. baumannii biofilms) was “did not decrease biofilm formation”, the MIC (A. baumannii 907233; Acinetobacter baumannii, 907233, 18 h) was 200 µM (≈ 76.7 µg/mL) and the MIC (A. baumannii 409081 [4]; Acinetobacter baumannii, 409081, 18 h) was 200 µM (≈ 76.7 µg/mL). For the same compound, the MIC (A. baumannii #2; Acinetobacter baumannii) was 100 µM (≈ 38.3 µg/mL), the MIC (A. baumannii #4; Acinetobacter baumannii) was 100 µM (≈ 38.3 µg/mL) and the MIC (A. baumannii #3 [5]; Acinetobacter baumannii) was 50 µM (≈ 19.2 µg/mL). It also gave an MIC (A. baumannii 719705 [6]; Acinetobacter baumannii, 719705, 18 h) of 100 µM (≈ 38.3 µg/mL).
